Assay results from patent publication US20230026232A1, “AHR INHIBITORS AND USES THEREOF” (Ikena Oncology, Inc., priority 2019, published 2023).
“Also recorded” adds a separate entry of the source.

Columns and labels:
[1] = Phase 1 dose-escalation study: safety; type: in vivo; settings: 200 mg, 400 mg, 800 mg, and 1200 mg QD, human patients, fed state
Excerpt: This is a first-in-human (FIH), single-arm, dose-escalation and expansion study to evaluate the safety, tolerability, PK, pharmacodynamics, and preliminary antitumor activity of Compound A administered orally in patients with advanced solid tumors and urothelial carcinoma. Subject enrollment and continuous safety assessment will be guided by a mTPI-2 design (Guo, 2017). Decisions for dose escalation and de-escalation will be made by a Safety Review Committee (SRC) comprised of the enrolling study Investigators and the Sponsor. To assess evidence of preliminary antitumor activity, a Simon 2-stage design (Simon, 1989) is used.
Toxicity is evaluated according to National Cancer Institute Common Terminology Criteria for Adverse Events (AEs) (NCI-CTCAE) v5.0. DLT events are defined herein. AEs will be assessed, and laboratory values (chemistry, hematology, coagulation, thyroid function and urinalysis as specified herein), vital signs, and 12-lead triplicate electrocardiograms (ECGs) are obtained to evaluate the safety and tolerability of Compound A.
A modified Toxicity Probability Interval (mTPI-2) design (Guo, 2017) with a target DLT rate of approximately 30% is applied for dose escalation and confirmation to determine the Compound A RP2D. Several dose levels of Compound A, planned from 200 mg QD to 1600 mg daily, are explored. […]

AHR = target: T1, AHR (Mus musculus, UniProt P30561); assay: AHR-dependent Cyp1A1 expression (P450-Glo) in mouse Hepa1.6 cells stimulated with VAF347; type: cell-based; settings: read-out: IC50, AHR-dependent expression of Cyp1A1; murine Hepa1.6 cells, 2 μM VAF347, 24 hours, average
T1 sequence (P30561 10-805): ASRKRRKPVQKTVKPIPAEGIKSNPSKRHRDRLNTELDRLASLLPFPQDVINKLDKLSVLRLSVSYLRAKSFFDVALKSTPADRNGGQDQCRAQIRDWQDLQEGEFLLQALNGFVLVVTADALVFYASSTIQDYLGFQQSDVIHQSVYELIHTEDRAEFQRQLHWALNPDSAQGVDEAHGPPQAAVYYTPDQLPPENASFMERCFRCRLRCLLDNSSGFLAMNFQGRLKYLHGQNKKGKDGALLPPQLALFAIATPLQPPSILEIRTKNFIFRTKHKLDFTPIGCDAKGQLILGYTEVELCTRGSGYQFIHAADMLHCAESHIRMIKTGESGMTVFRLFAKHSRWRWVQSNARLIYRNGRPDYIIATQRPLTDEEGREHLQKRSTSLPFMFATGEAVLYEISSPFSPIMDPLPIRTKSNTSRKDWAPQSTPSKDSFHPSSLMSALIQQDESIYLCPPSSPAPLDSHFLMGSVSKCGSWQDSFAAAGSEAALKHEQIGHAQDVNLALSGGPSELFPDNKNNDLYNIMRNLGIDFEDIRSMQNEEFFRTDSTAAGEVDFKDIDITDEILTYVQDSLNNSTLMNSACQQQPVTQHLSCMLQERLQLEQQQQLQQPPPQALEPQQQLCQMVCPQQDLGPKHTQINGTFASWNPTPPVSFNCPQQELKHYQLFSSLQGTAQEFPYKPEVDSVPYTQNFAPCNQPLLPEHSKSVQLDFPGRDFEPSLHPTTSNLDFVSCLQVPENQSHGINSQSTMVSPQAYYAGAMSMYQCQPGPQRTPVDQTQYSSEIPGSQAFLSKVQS
Experimental: The ability of Compound A to inhibit AHR-dependent Cyp1A1 gene expression was examined in vitro by measuring changes in Cyp1A1 enzymatic activity in 2 rodent hepatoma cell lines following AHR agonist stimulation. Mouse Hepa1.6 and rat H411E hepatoma cells were treated with AHR agonists VAF347 and L-kynurenine, respectively, in the presence of Compound A at multiple concentrations for 24 hours. The inhibition of Cyp1A1 expression was subsequently evaluated by measuring Cyp1A1 enzyme activity using P450-Glo assays.

For `CC(C)c1cnn2c(N[C@@H]3CCc4[nH]c5ccccc5c4C3)nc(-c3cncc(F)c3)nc12` [Compound A, (R)—N-(2-(5-fluoropyridin-3-yl)-8-isopropylpyrazolo[1,5-a][1,3,5]triazin-4-yl)-2,3,4,9-tetrahydro-1H-carbazol-3-amine], the “serious adverse events (SAEs)” value [1] was “without any drug-related serious adverse events; also recorded: no serious adverse events” and the IC50 (AHR) was 36 nM.
